For test [1], the system named is p21 induction in HCT116 cells. Description: p21 induction in HCT116 cells. The test is classed as cell-based. Conditions: Homo sapiens, HCT-116, 24 h, HCT116 cells, 24 h compound incubation; read-out: P21_EC50. The method in brief: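 HCT116 cells, 2,000/well, treated 24 h at 37 °C with 11-point compound dilutions in duplicate. Fixed, then immunostained for p21 and GAPDH and read by near-IR imaging at 800/700 nm. Normalized to DMSO (low) and reference WRN inhibitor (high) controls; EC50 from non-linear regression.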

The target of test [2] is WRN (BV08), human Werner helicase (Uniprot Q14191, amino acids 517-1235 with L1074F point mutation) (Homo sapiens (Human), UniProt Q14191, L1074F). Description: WRN (BV08) ADP-Glo assay. It counts as biochemical. The conditions noted are these: class symbols A-E, read-out: ADP-Glo_hWRN_IC50. In general terms: In ADP-Glo the light output rises with the ADP produced.
WRN (BV08), human Werner helicase (Uniprot Q14191, amino acids 517-1235 with L1074F point mutation), sequence (Q14191 other isoform, or with tags, fused parts or gaps L1074F (already in the parent)): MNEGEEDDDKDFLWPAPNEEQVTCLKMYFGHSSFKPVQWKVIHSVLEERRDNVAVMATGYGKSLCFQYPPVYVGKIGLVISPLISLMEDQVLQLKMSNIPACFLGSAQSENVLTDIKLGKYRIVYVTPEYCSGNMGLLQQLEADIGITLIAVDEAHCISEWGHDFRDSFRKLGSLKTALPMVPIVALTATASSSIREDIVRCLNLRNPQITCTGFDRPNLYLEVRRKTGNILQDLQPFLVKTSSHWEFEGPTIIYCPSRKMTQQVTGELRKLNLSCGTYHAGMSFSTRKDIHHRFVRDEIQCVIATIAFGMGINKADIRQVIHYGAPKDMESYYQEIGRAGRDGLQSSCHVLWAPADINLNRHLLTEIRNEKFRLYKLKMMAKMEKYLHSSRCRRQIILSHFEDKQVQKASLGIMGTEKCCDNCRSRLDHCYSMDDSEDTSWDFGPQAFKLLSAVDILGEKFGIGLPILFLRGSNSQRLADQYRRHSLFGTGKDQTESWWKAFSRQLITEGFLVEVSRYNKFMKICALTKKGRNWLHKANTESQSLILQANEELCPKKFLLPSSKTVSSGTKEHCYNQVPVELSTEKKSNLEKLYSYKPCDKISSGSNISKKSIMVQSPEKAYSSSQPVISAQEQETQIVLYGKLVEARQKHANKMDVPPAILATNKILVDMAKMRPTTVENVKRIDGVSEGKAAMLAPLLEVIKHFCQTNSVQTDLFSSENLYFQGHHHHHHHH

Consider `CCc1c(N2CCN(C(=O)c3ncnc(C)c3O)[C@H]3CC[C@@H]32)c(=O)c2nc(C)cnc2n1CC(=O)Nc1ccc(C(F)(F)F)cc1Cl` [I-262, N-[2-chloro-4-(trifluoromethyl)phenyl]-2-{6-ethyl-7-[(1S,6S)-5-(5-hydroxy-6-methylpyrimidine-4-carbonyl)-2,5-diazabicyclo[4.2.0]octan-2-yl]-2-methyl-8-oxo-5H,8H-pyrido[2,3-b]pyrazin-5-yl}acetamide], for which the EC50 in test [1] was < 500 nM. In test [2], the IC50 was in the range of 5 to 50 nM.
In the case of `CCc1c(N2CCN(C(=O)c3ncnc(C)c3O)[C@H]3CC[C@@H]32)c(=O)c2nc(N3CCNCC3)cnc2n1CC(=O)Nc1ccc(C(F)(F)F)cc1Cl` [I-263, N-[2-chloro-4-(trifluoromethyl)phenyl]-2-{6-ethyl-7-[(1S,6S)-5-(5-hydroxy-6-methylpyrimidine-4-carbonyl)-2,5-diazabicyclo[4.2.0]octan-2-yl]-8-oxo-2-(piperazin-1-yl)-5H,8H-pyrido[2,3-b]pyrazin-5-yl}acetamide], the EC50 in test [1] is > 5000 nM. Further, the IC50 in test [2] lay in the range of 5 to 50 nM.
For the compound `CCc1c(N2CCN(C(=O)c3ncnc(C)c3O)[C@H]3CC[C@@H]32)c(=O)c2nc(N(C)CCO)cnc2n1CC(=O)Nc1ccc(C(F)(F)F)cc1Cl` [I-264, N-[2-chloro-4-(trifluoromethyl)phenyl]-2-{6-ethyl-7-[(1S,6S)-5-(5-hydroxy-6-methylpyrimidine-4-carbonyl)-2,5-diazabicyclo[4.2.0]octan-2-yl]-2-[(2-hydroxyethyl)(methyl)amino]-8-oxo-5H,8H-pyrido[2,3-b]pyrazin-5-yl}acetamide], the EC50 in test [1] was < 500 nM. For the same compound, the IC50 in test [2] lay in the range of 5 to 50 nM.
As for `CCc1c(N2CCN(C(=O)c3cccc4ncoc34)[C@H]3CC[C@@H]32)c(=O)c2nc(N(C)C)cnc2n1CC(=O)Nc1ccc(C(F)(F)F)cc1Cl` [I-265, 2-{7-[(1S,6S)-5-(1,3-benzoxazole-7-carbonyl)-2,5-diazabicyclo[4.2.0]octan-2-yl]-2-(dimethylamino)-6-ethyl-8-oxo-5H,8H-pyrido[2,3-b]pyrazin-5-yl}-N-[2-chloro-4-(trifluoromethyl)phenyl]acetamide], in test [1], the EC50 lay within 2000 to 5000 nM. For the same compound, the IC50 in test [2] was 5 to 50 nM.
Regarding `CCc1c(N2CCN(C(=O)c3ncnc(C)c3O)[C@H]3CC[C@@H]32)c(=O)c2nc(N[C@H](C)[C@H](C)O)cnc2n1CC(=O)Nc1ccc(C(F)(F)F)cc1Cl` [I-266, N-[2-chloro-4-(trifluoromethyl)phenyl]-2-{6-ethyl-7-[(1S,6S)-5-(5-hydroxy-6-methylpyrimidine-4-carbonyl)-2,5-diazabicyclo[4.2.0]octan-2-yl]-2-{[(2R,3S)-3-hydroxybutan-2-yl]amino}-8-oxo-5H,8H-pyrido[2,3-b]pyrazin-5-yl}acetamide], the EC50 in test [1] lay in the range of 500 to 2000 nM. Moreover, in test [2], the IC50 lay in the range of 5 to 50 nM.
Consider `CCc1c(N2CCN(C(=O)c3ncnc(C)c3O)[C@H]3CC[C@@H]32)c(=O)c2nc(N(C)[C@H]3C[C@H](OC)C3)cnc2n1CC(=O)Nc1ccc(C(F)(F)F)cc1Cl` [I-267, N-[2-chloro-4-(trifluoromethyl)phenyl]-2-{6-ethyl-7-[(1S,6S)-5-(5-hydroxy-6-methylpyrimidine-4-carbonyl)-2,5-diazabicyclo[4.2.0]octan-2-yl]-2-{methyl[(1r,3r)-3-methoxycyclobutyl]amino}-8-oxo-5H,8H-pyrido[2,3-b]pyrazin-5-yl}acetamide], for which, in test [1], the EC50 was < 500 nM. In addition, the IC50 in test [2] lay within 5 to 50 nM.
As to `CCc1c(N2CCN(C(=O)c3ncnc(C)c3O)[C@H]3CC[C@@H]32)c(=O)c2nc(-c3cn[nH]c3)cnc2n1CC(=O)Nc1ccc(C(F)(F)F)cc1Cl` [I-268, N-[2-chloro-4-(trifluoromethyl)phenyl]-2-{6-ethyl-7-[(1S,6S)-5-(5-hydroxy-6-methylpyrimidine-4-carbonyl)-2,5-diazabicyclo[4.2.0]octan-2-yl]-8-oxo-2-(1H-pyrazol-4-yl)-5H,8H-pyrido[2,3-b]pyrazin-5-yl}acetamide], in test [1], the EC50 is < 500 nM. For the same compound, the IC50 in test [2] is ≤ 5 nM.
For `CCc1c(N2CCN(C(=O)c3ncnc(C)c3O)[C@H]3CC[C@@H]32)c(=O)c2nc(N(C)C[C@H](C)OC)cnc2n1CC(=O)Nc1ccc(C(F)(F)F)cc1Cl` [I-269, N-[2-chloro-4-(trifluoromethyl)phenyl]-2-{6-ethyl-7-[(1S,6S)-5-(5-hydroxy-6-methylpyrimidine-4-carbonyl)-2,5-diazabicyclo[4.2.0]octan-2-yl]-2-{[(2S)-2-methoxypropyl](methyl)amino}-8-oxo-5H,8H-pyrido[2,3-b]pyrazin-5-yl}acetamide], the EC50 in test [1] is < 500 nM. Besides, the IC50 in test [2] lay in the range of 5 to 50 nM.
In the same order, the values of `CCc1c(N2CCN(C(=O)c3ncnc(C)c3O)[C@H]3CC[C@@H]32)c(=O)c2nc(N3CC[C@@H](O)C3)cnc2n1CC(=O)Nc1ccc(C(F)(F)F)cc1Cl` [I-270, N-[2-chloro-4-(trifluoromethyl)phenyl]-2-{6-ethyl-7-[(1S,6S)-5-(5-hydroxy-6-methylpyrimidine-4-carbonyl)-2,5-diazabicyclo[4.2.0]octan-2-yl]-2-[(3R)-3-hydroxypyrrolidin-1-yl]-8-oxo-5H,8H-pyrido[2,3-b]pyrazin-5-yl}acetamide] are 500 to 2000 nM and 5 to 50 nM.
Consider `CCc1c(N2CCN(C(=O)c3ncnc(C)c3O)[C@H]3CC[C@@H]32)c(=O)c2nc(N3CC[C@H](O)C3)cnc2n1CC(=O)Nc1ccc(C(F)(F)F)cc1Cl` [I-271, N-[2-chloro-4-(trifluoromethyl)phenyl]-2-{6-ethyl-7-[(1S,6S)-5-(5-hydroxy-6-methylpyrimidine-4-carbonyl)-2,5-diazabicyclo[4.2.0]octan-2-yl]-2-[(3S)-3-hydroxypyrrolidin-1-yl]-8-oxo-5H,8H-pyrido[2,3-b]pyrazin-5-yl}acetamide], for which the EC50 in test [1] was 500 to 2000 nM. For the same compound, the IC50 in test [2] lay in the range of 5 to 50 nM.
In the same order, the values of `CCc1c(N2CCN(C(=O)c3ncnc(C)c3O)[C@H]3CC[C@@H]32)c(=O)c2nc(-c3cncs3)cnc2n1CC(=O)Nc1ccc(C(F)(F)F)cc1Cl` [I-272, N-[2-chloro-4-(trifluoromethyl)phenyl]-2-{6-ethyl-7-[(1S,6S)-5-(5-hydroxy-6-methylpyrimidine-4-carbonyl)-2,5-diazabicyclo[4.2.0]octan-2-yl]-8-oxo-2-(1,3-thiazol-5-yl)-5H,8H-pyrido[2,3-b]pyrazin-5-yl}acetamide] are < 500 nM and 5 to 50 nM.
As to `CCc1c(N2CCN(C(=O)c3c(Oc4cnn(C)c4)ncc(C)c3O)[C@H]3CC[C@@H]32)c(=O)c2nc(N(C)C)cnc2n1CC(=O)Nc1ccc(C(F)(F)F)cc1Cl` [I-273, N-[2-chloro-4-(trifluoromethyl)phenyl]-2-[2-(dimethylamino)-6-ethyl-7-[(1S,6S)-5-{4-hydroxy-5-methyl-2-[(1-methyl-1H-pyrazol-4-yl)oxy]pyridine-3-carbonyl}-2,5-diazabicyclo[4.2.0]octan-2-yl]-8-oxo-5H,8H-pyrido[2,3-b]pyrazin-5-yl]acetamide], the EC50 in test [1] was < 500 nM. Also, the IC50 in test [2] was in the range of 5 to 50 nM.
Turning to `CCc1c(N2CCN(C(=O)c3c(OC)ncc(OC)c3O)[C@H]3CC[C@@H]32)c(=O)c2nc(N(C)C)cnc2n1CC(=O)Nc1ccc(C(F)(F)F)cc1Cl` [I-274], the EC50 in test [1] is < 500 nM. For the same compound, in test [2], the IC50 lay within 5 to 50 nM.
As for `CCOc1ncc(C)c(O)c1C(=O)N1CCN(c2c(CC)n(CC(=O)Nc3ccc(C(F)(F)F)cc3Cl)c3ncc(N(C)C)nc3c2=O)[C@H]2CC[C@@H]21` [I-275, N-[2-chloro-4-(trifluoromethyl)phenyl]-2-[2-(dimethylamino)-7-[(1S,6S)-5-(2-ethoxy-4-hydroxy-5-methylpyridine-3-carbonyl)-2,5-diazabicyclo[4.2.0]octan-2-yl]-6-ethyl-8-oxo-5H,8H-pyrido[2,3-b]pyrazin-5-yl]acetamide], the EC50 in test [1] was < 500 nM. For the same compound, in test [2], the IC50 lay within 5 to 50 nM.
In the same order, the values of `CCc1c(N2CCN(C(=O)c3c(OC)ncc(C(F)F)c3O)[C@H]3CC[C@@H]32)c(=O)c2nc(N(C)C)cnc2n1CC(=O)Nc1ccc(C(F)(F)F)cc1Cl` [I-280, N-[2-chloro-4-(trifluoromethyl)phenyl]-2-{7-[(1S,6S)-5-[5-(difluoromethyl)-4-hydroxy-2-methoxypyridine-3-carbonyl]-2,5-diazabicyclo[4.2.0]octan-2-yl]-2-(dimethylamino)-6-ethyl-8-oxo-5H,8H-pyrido[2,3-b]pyrazin-5-yl}acetamide] are > 5000 nM and 5 to 50 nM.
Turning to `CCc1c(N2CCN(C(=O)c3c(OC(F)F)ncc(C)c3O)[C@H]3CC[C@@H]32)c(=O)c2nc(N(C)C)cnc2n1CC(=O)Nc1ccc(C(F)(F)F)cc1Cl` [I-281, N-[2-chloro-4-(trifluoromethyl)phenyl]-2-{7-[(1S,6S)-5-[2-(difluoromethoxy)-4-hydroxy-5-methylpyridine-3-carbonyl]-2,5-diazabicyclo[4.2.0]octan-2-yl]-2-(dimethylamino)-6-ethyl-8-oxo-5H,8H-pyrido[2,3-b]pyrazin-5-yl}acetamide], the EC50 in test [1] was < 500 nM. Moreover, in test [2], the IC50 fell in the range of 5 to 50 nM.
Regarding `CCc1c(N2CCN(C(=O)c3c(OCCOC)ncc(C)c3O)[C@H]3CC[C@@H]32)c(=O)c2nc(N(C)C)cnc2n1CC(=O)Nc1ccc(C(F)(F)F)cc1Cl` [I-282, N-[2-chloro-4-(trifluoromethyl)phenyl]-2-[2-(dimethylamino)-6-ethyl-7-[(1S,6S)-5-[4-hydroxy-2-(2-methoxyethoxy)-5-methylpyridine-3-carbonyl]-2,5-diazabicyclo[4.2.0]octan-2-yl]-8-oxo-5H,8H-pyrido[2,3-b]pyrazin-5-yl]acetamide], in test [1], the EC50 is < 500 nM. Further, in test [2], the IC50 lay in the range of 5 to 50 nM.

The record behind these values is patent US20250034136A1 (Nimbus Wadjet, Inc., priority 2023, published 2025).
